The test system of data set [1] is α-glucosidase. The data set is described as follows: colorimetric α-glucosidase inhibitory assay. The note with it: for %Inhibition at 250 µg/mL: sample at 250 µg/mL; for IC50: substrate p-nitrophenyl α-D-glucoside, 37 °C. It counts as biochemical. The protocol:
The previously reported approach was used to perform a colorimetric α-glucosidase assay. Briefly, the tested samples (50 µL) were combined with 50 µL of the α-glucosidase enzyme solution (0.05 U/mL) and preincubated at 37 °C for 5 min. The substrate (50 µL, c 1 mM), p-nitrophenyl α-D-glucoside, was added and incubated at 37 °C for 30 min. Then, 50 µL of Na2CO3 (0.3 M) was added. The absorption of the mixture was measured at 405 nm.

Data set [2] deals with Plasmodium falciparum. Set-up: method as in PMID 19573585. The note with it: cited from earlier work.
In data set [3] the test system is HCT116. Set-up: method as in PMID 31918304. The note with it: colon cancer cell line HCT116; read-out: IC50, cytotoxicity against HCT116; cited from earlier work.

≈ marks a conversion by molar mass, not a printed value.

On to `C[C@H]1O[C@H](O[C@H]2[C@H](O)[C@@H](O)[C@@H](O[C@H]3[C@H](O)[C@@H](O)C(O)O[C@@H]3CO)O[C@@H]2CO)[C@H](O)[C@@H](O)[C@@H]1N[C@H]1C=C(CO)[C@@H](O)[C@H](O)[C@H]1O` (stereo partly shown) [Acarbose, reference compound], for which, in data set [1], the “%Inhibition at 250 µg/mL” value is reported as 88.1%. Turning to (−)-nordicentrine, the “IC50, antiplasmodial activity” value in data set [2] is 0.3 µg/mL. For `O=C1C=CCC(/C=C\c2ccccc2)O1` (stereo not shown) [(Z)-6-styryl-5,6-dihydro-2-pyranone], the IC50 in data set [3] is 22.2 µM. With `C[C@@H]1C2=C(NC(=O)[C@@H]1O)C(=O)c1ccccc1C2=O` [Compound 4, griffithazanone A], the “%Inhibition at 250 µg/mL” value in data set [1] amounted to 98.0%. With `Cn1cc(CO)c2c1C(=O)c1ccccc1C2=O` [Compound 2, 3-hydroxymethyl-1-methyl-1H-benz[f]indole-4,9-dione], in data set [1], the “%Inhibition at 250 µg/mL” value turned out to be 99.3%. In the case of `O=C1C=CC(=CC=Cc2ccccc2)O1` [Compound 7, 5-(3-phenyl-2-propenylidene)-2(5H)-furanone], in data set [1], the “%Inhibition at 250 µg/mL” value turned out to be 98.6% and the IC50 amounted to 1.25 ± 0.4 µM. Turning to `O=C1C=C[C@@H](O)[C@@H](/C=C/c2ccccc2)O1` [Compound 9, (−)-5-hydroxygoniothalamin], the “%Inhibition at 250 µg/mL” value in data set [1] was 99.8%. As for `Cn1cc(C(=O)O)c2c1C(=O)c1ccccc1C2=O` [Compound 3, goniochelienic acid B], the “%Inhibition at 250 µg/mL” value in data set [1] is on record as 99.5%.

Consider `CC(=O)O[C@H]1[C@H]2OC(=O)C=C[C@@H]2O[C@H]1c1ccccc1` [(+)-3-Acetylaltholactone], for which the “IC50, antiplasmodial activity” value in data set [2] is 2.6 µg/mL (≈ 9.48 µM). With `COc1cccc2c1cc1c3c(cc4c(c32)OC2Oc3c(cc5c6c(cc7ccccc7c36)NC5=O)OC2O4)C(=O)N1` (stereo not shown) [Compound 1, Gonioridleylactam], the melting point was 296 to 298 °C. Also, in data set [1], the “%Inhibition at 250 µg/mL” value came out at 99.6% and the midpoint of inhibition, the IC50, lay at 138.9 ± 0.9 µM.

(Values after article PMC9918889, “Alkaloids and Styryl lactones from Goniothalamus ridleyi King and Their α-Glucosidase Inhibitory Activity” (Molecules, 2023).)
